Test results from patent US7727980B2, “Tricyclic androgen receptor modulator compounds and methods” (priority 2001, dated 2010).
Like-named read-outs stand apart in the source and are kept apart here.

Key:
human AR [1] = biological target: T1, human AR (Homo sapiens, UniProt P10275); test: AR whole cell competitive binding assay (3H-DHT), transfected COS-1 cells; design: expressed in transfected cells; transient transfection with pRShAR
T1 sequence (P10275 1-920): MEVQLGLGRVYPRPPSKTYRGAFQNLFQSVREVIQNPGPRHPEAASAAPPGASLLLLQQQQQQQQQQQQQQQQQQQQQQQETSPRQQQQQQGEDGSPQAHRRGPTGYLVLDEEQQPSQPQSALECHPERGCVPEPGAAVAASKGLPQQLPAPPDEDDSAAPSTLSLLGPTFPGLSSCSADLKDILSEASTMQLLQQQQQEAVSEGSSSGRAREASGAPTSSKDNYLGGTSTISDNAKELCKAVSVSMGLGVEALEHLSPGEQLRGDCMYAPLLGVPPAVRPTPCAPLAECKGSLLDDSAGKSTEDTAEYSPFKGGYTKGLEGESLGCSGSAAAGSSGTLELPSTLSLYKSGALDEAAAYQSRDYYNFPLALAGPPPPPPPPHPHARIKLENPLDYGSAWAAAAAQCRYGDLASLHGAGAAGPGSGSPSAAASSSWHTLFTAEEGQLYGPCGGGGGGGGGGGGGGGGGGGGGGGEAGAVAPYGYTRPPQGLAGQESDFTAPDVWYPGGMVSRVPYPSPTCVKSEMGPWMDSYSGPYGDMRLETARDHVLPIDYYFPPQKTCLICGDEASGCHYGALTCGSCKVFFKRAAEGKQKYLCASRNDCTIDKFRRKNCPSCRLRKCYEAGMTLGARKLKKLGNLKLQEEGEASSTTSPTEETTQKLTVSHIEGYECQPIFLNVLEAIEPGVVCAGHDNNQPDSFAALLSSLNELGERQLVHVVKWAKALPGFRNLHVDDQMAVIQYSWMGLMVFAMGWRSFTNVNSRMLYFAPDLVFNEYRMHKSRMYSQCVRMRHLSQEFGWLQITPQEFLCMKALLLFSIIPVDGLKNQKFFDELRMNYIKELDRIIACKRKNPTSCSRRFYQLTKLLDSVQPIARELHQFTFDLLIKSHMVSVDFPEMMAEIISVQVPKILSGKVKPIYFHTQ

human AR [2] = biological target: T1, human AR; test: Co-transfection assay, AR agonist activity, CV-1 cells; type: cell-based; design: expressed in transfected cells; host or cells: CV-1 cells (African green monkey kidney fibroblasts), transient transfection with pRShAR; conditions: for AR Agonist CV-1 Cells Efficacy (%): percent maximal response relative to reference agonist DHT
human AR [3] = biological target: T1, human AR; test: Co-transfection assay, AR antagonist activity in presence of DHT, CV-1 cells; type: cell-based; design: expressed in transfected cells; host or cells: CV-1 cells (African green monkey kidney fibroblasts), transient transfection with pRShAR; conditions: for AR Antagonist CV-1 Cells Efficacy (%): percent maximal inhibition, DHT at its EC50 concentration
[4] = AR Binding Ki (nM), COS-1 cells, 1 nM 3H-DHT, Cheng-Prusoff from IC50
[5] = AR Agonist CV-1 Cells Potency (nM), agonist potency or EC50
[6] = AR Antagonist CV-1 Cells Potency (nM), CV-1 cells, antagonist potency or IC50, DHT at its EC50 concentration
[7] = COS-1 cells, 1 nM 3H-DHT, Cheng-Prusoff from IC50, read-out: AR Binding Ki
[8] = agonist potency or EC50, read-out: AR Agonist CV-1 Cells Potency
[9] = CV-1 cells, antagonist potency or IC50, DHT at its EC50 concentration, read-out: AR Antagonist CV-1 Cells Potency

Molecule | Ki (human AR [1]; [4]) | EC50 (human AR [2]; [5]) | AR Agonist CV-1 Cells Efficacy (%) (human AR [2]) | IC50 (human AR [3]; [6]) | AR Antagonist CV-1 Cells Efficacy (%) (human AR [3]; CV-1 cells) | Ki (human AR [1]; [7]) | EC50 (human AR [2]; [8]) | IC50 (human AR [3]; [9]) | Ki (human AR [1]; read-out: AR Binding Ki) | IC50 (human AR [3])
CCc1[nH]c2c(ccc3[nH]c(=O)cc(C(F)(F)F)c32)c1C [Compound 175, 6-Ethyl-7-methyl-4-trifluoromethyl-5H-pyrrolo[2,3-f]quinolin-2(1H)-one] | 239 nM | > 10000 nM | na (na = not active (i.e. efficacy of <20 and potency of >10,000)) | 11 nM | 78% | – | – | – | – | –
O=c1cc(C(F)(F)F)c2c3c(ccc2[nH]1)N(CC(F)(F)Cl)C1CCCC31 (racemic) [Compound 129, (±)-4c,5,6,7,7a(cis),8-Hexahydro-8-(2,2,2-chlorodifluoroethyl)-4-trifluoromethylcyclopentano[g]pyrrolo[3,2-f]quinolin-2(1H)-one] | 3.2 nM | 1.6 nM | 79% | > 10000 nM | na (na = not active (i.e. efficacy of <20 and potency of >10,000)) | – | – | – | – | –
6-(1-Methoxyethyl)-5-methyl-7-(2,2,2-trifluoroethyl)-4-trifluoromethyl-7H-pyrrolo[3,2-f]quinolin-2(1H)-one [Compound 172] | – | – | 89% | – | na (na = not active (i.e. efficacy of <20 and potency of >10,000)) | 12 nM | 19 nM | > 10000 nM | – | –
CCCN1c2ccc3[nH]c(=O)cc(C(F)(F)F)c3c2C2CCCC21 (racemic) [Compound 125, (±)-4c,5,6,7,7a(cis),8-Hexahydro-8-propyl-4-trifluoromethylcyclopentano-[g]pyrrolo-[3,2-f]quinolin-2(1H)-one] | 1.3 nM | 38 nM | 121% | > 10000 nM | na (na = not active (i.e. efficacy of <20 and potency of >10,000)) | – | – | – | – | –
CC1(C)C=Cc2c(ccc3[nH]c(=O)cc(C(F)(F)F)c23)N1 [Compound 106, 7,8-Dihydro-7,7-dimethyl-4-trifluoromethylpyridino[3,2-f]quinolin-2(1H)-one] | 45 nM | 12 nM | 108% | > 10000 nM | na (na = not active (i.e. efficacy of <20 and potency of >10,000)) | – | – | – | – | –
CC1(C)CCc2c(ccc3[nH]c(=O)cc(C(F)(F)F)c23)N1CC(F)(F)F [Compound 110, 8-(2,2,2-Trifluoroethyl)-5,6,7,8-tetrahydro-7,7-dimethyl-4-trifluoromethyl-pyridino[3,2-f]quinolin-2(1H)-one] | 21 nM | 21 nM | 106% | > 10000 nM | na (na = not active (i.e. efficacy of <20 and potency of >10,000)) | – | – | – | – | –
5-(4-Fluorophenyl)-6-methyl-7-(2,2,2-trifluoroethyl)-4-trifluoromethyl-7H-pyrrolo[3,2-f]quinolin-2(1H)-one [Compound 161] | – | – | 27% | – | 66% | 30 nM | 238 nM | 10 nM | – | –
5-Isopropyl-6-methyl-4-trifluoromethyl-7H-pyrrolo[3,2-f]quinolin-2(1H)-one [Compound 113] | – | – | na (na = not active (i.e. efficacy of <20 and potency of >10,000)) | – | 65% | 529 nM | > 10000 nM | 316 nM | – | –
5,6-Dimethyl-7-(2,2,2-trifluoroethyl)-4-trifluoromethyl-7H-pyrrolo[3,2-f]quinolin-2(1H)-one [Compound 150] | – | – | 95% | – | na (na = not active (i.e. efficacy of <20 and potency of >10,000)) | 4 nM | 2.1 nM | > 10000 nM | – | –
O=c1cc(C(F)(F)F)c2c3c(ccc2[nH]1)N(CC(F)(F)F)C1CCCCC31 (racemic) [Compound 132, (±)-4c,5,6,7,8,8a(cis),9-Heptahydro-9-(2,2,2-trifluoroethyl)-4-trifluoro-methyl-9H-cyclohexano[g]pyrrolo[3,2-f]quinolin-2(1H)-one] | 21 nM | 4.8 nM | 70% | > 10000 nM | na (na = not active (i.e. efficacy of <20 and potency of >10,000)) | – | – | – | – | –
CCC1(CC)CCc2c(ccc3[nH]c(=O)cc(C(F)(F)F)c23)N1 [Compound 105, 5,6,7,8-Tetrahydro-7,7-diethyl-4-trifluoromethylpyridino[3,2-f]quinolin-2(1H)-one] | 45 nM | 32 nM | 57% | > 10000 nM | na (na = not active (i.e. efficacy of <20 and potency of >10,000)) | – | – | – | – | –
CCN1c2ccc3[nH]c(=O)cc(C(F)(F)F)c3c2CCC1(C)C [Compound 108, 8-Ethyl-5,6,7,8-tetrahydro-7,7-dimethyl-4-trifluoromethylpyridino[3,2-f]quinolin-2(1H)-one] | 6.7 nM | – | 66% | > 10000 nM | na (na = not active (i.e. efficacy of <20 and potency of >10,000)) | – | – | – | – | –
CCC1C(C)c2c(ccc3[nH]c(=O)ccc23)N1CC(F)(F)F (racemic) [Compound 149, (±)-5,6-cis-Dihydro-5-methyl-6-ethyl-7-(2,2,2-trifluoroethyl)-7H-pyrrolo[3,2-f]quinolin-2(1H)-one] | – | > 10000 nM | na (na = not active (i.e. efficacy of <20 and potency of >10,000)) | – | 81% | – | – | – | 127 nM | 25 nM
CC1CCc2cc3[nH]c(=O)cc(C(F)(F)F)c3cc2N1CC1CC1 (centres unmarked) [Compound 195, 4-Trifluoromethyl-7-methyl-6-cyclopropylmethyl-6,7,8,9-tetrahydropyrido[2,3-g]quinolin-2(1H)-one] | 20 nM | – | 78% | > 10000 nM | na (na = not active (i.e. efficacy of <20 and potency of >10,000)) | – | – | – | – | –
CCCN1c2ccc3[nH]c(=O)cc(C(F)(F)F)c3c2CCC1(C)C [Compound 109, 5,6,7,8-Tetrahydro-7,7-dimethyl-4-trifluoromethyl-8-propylpyridino[3,2-f]quinolin-2(1H)-one] | 1.2 nM | 13 nM | 97% | > 10000 nM | na (na = not active (i.e. efficacy of <20 and potency of >10,000)) | – | – | – | – | –
5-(2-Ethoxycarbonylethyl)-6-methyl-7-(2,2,2-trifluoroethyl)-4-trifluoromethyl-7H-pyrrolo[3,2-f]quinolin-2(1H)-one [Compound 162] | – | – | 71% | – | na (na = not active (i.e. efficacy of <20 and potency of >10,000)) | 113 nM | 20 nM | > 10000 nM | – | –
O=c1cc(C(F)(F)F)c2c3c(ccc2[nH]1)N(Cc1ccsc1)C1CCCC31 (racemic) [Compound 127, (±)-4c,5,6,7,7a(cis),8-Hexahydro-8-(3-thiophenemethyl)-4-trifluoromethyl-cyclopentano[g]pyrrolo[3,2-f]quinolin-2(1H)-one] | 6.3 nM | 25 nM | 66% | > 10000 nM | na (na = not active (i.e. efficacy of <20 and potency of >10,000)) | – | – | – | – | –
